These results are taken from ChEMBL document CHEMBL5385936, “Design, synthesis, α-amylase and glucose diffusion inhibition, and molecular docking studies of new indenopyrazolones bearing benzothiazole derivatives” (Bioorg Med Chem Lett, 2024).

A short description of test [1]: In vitro antidiabetic activity measured by appearance of glucose in external solution using dialysis bag and D-glucose incubated for 1 to 27 hrs by 3,5-dinitrosalicylic acid based glucose diffusion inhibition assay. In kind it is functional. To be noted: time 1-27 hrs.
A short description of test [2]: Inhibition of Aspergillus oryzae alpha-amylase in presence of 1% starch incubated for 10 mins.

The compound `Cc1cccc2sc(-n3nc(-c4ccccc4)c4c3-c3ccccc3C4=O)nc12` had an Activity in test [1] of 6.68 µg/mL. Also, the half-maximal inhibitory concentration (IC50) (usually the concentration that inhibits the measured activity by half) in test [2] was determined as 167.48 µg/mL.

`COc1cccc(-c2nn(-c3nc4ccc(F)cc4s3)c3c2C(=O)c2ccccc2-3)c1`: the Activity in test [1] is 10.9 µg/mL. The IC50 in test [2] was 162.5 µg/mL.

As for `O=C1c2ccccc2-c2c1c(-c1cccc(Cl)c1)nn2-c1nc2ccc(F)cc2s1`, the Activity in test [1] is 18 µg/mL. In addition, the half-maximal inhibitory concentration (IC50) in test [2] came to 190.98 µg/mL.

Turning to `Cc1cccc(-c2nn(-c3nc4c(C)cccc4s3)c3c2C(=O)c2ccccc2-3)c1`, the Activity in test [1] was found to be 8.25 µg/mL. The IC50 in test [2] is 198.33 µg/mL.

As for `Cc1cccc2sc(-n3nc(-c4ccc(Cl)cc4)c4c3-c3ccccc3C4=O)nc12`, the Activity in test [1] came to 9.5 µg/mL. For the same compound, in test [2], the IC50 stood at 92.99 µg/mL.

Consider `C[C@H]1O[C@H](O[C@H]2[C@H](O)[C@@H](O)[C@@H](O[C@H]3[C@H](O)[C@@H](O)C(O)O[C@@H]3CO)O[C@@H]2CO)[C@H](O)[C@@H](O)[C@@H]1N[C@H]1C=C(CO)[C@@H](O)[C@H](O)[C@H]1O` (some centres not stated) [ACARBOSE], for which the Activity in test [1] is 2.76 µg/mL. For the same compound, the half-maximal inhibitory concentration (IC50) in test [2] was determined as 103.6 µg/mL.

For `O=C1c2ccccc2-c2c1c(-c1cccc(Br)c1)nn2-c1nc2ccc(F)cc2s1`, the Activity in test [1] is 11.9 µg/mL. The concentration for half-maximal inhibition (IC50) in test [2] was 192.95 µg/mL.

Take `COc1cccc(-c2nn(-c3nc4c(C)cccc4s3)c3c2C(=O)c2ccccc2-3)c1`: the Activity in test [1] was determined as 10.8 µg/mL. The IC50 in test [2] worked out at 200.95 µg/mL.

The compound `COc1ccc(-c2nn(-c3nc4c(C)cccc4s3)c3c2C(=O)c2ccccc2-3)cc1` registered an Activity in test [1] of 12.7 µg/mL. The half-inhibitory concentration (IC50) in test [2] worked out at 161.92 µg/mL.

In the case of `Cc1cccc2sc(-n3nc(-c4cccc(Cl)c4)c4c3-c3ccccc3C4=O)nc12`, in test [1], the Activity is 2.25 µg/mL. Moreover, the IC50 in test [2] was 171.2 µg/mL.

For `O=C1c2ccccc2-c2c1c(-c1ccc(Cl)cc1)nn2-c1nc2ccc(F)cc2s1`, in test [1], the Activity stood at 17.6 µg/mL. In addition, in test [2], the concentration for half-maximal inhibition (IC50) came out at 189.69 µg/mL.

On to `Cc1cccc2sc(-n3nc(-c4cccc(Br)c4)c4c3-c3ccccc3C4=O)nc12`, for which the Activity in test [1] is 6.29 µg/mL. Moreover, the IC50 in test [2] was 183.43 µg/mL.

Compound `Cc1cccc2sc(-n3nc(-c4ccc(F)cc4)c4c3-c3ccccc3C4=O)nc12` yielded an Activity in test [1] of 13.2 µg/mL. For the same compound, the IC50 in test [2] was determined as 159.95 µg/mL.

For `Cc1cccc2sc(-n3nc(-c4ccc(Br)cc4)c4c3-c3ccccc3C4=O)nc12`, the Activity in test [1] came to 17.2 µg/mL. Besides, the concentration for half-maximal inhibition (IC50) in test [2] came to 132.41 µg/mL.

As to `Cc1cccc(-c2nn(-c3nc4ccc(F)cc4s3)c3c2C(=O)c2ccccc2-3)c1`, the Activity in test [1] is 13.5 µg/mL. Besides, in test [2], the IC50 was 95.41 µg/mL.

In test [1], `COc1ccc(-c2nn(-c3nc4ccc(F)cc4s3)c3c2C(=O)c2ccccc2-3)cc1` returned an Activity of 4.26 µg/mL. Moreover, in test [2], the IC50 amounted to 104.74 µg/mL.

In test [1], `Cc1ccc(-c2nn(-c3nc4ccc(F)cc4s3)c3c2C(=O)c2ccccc2-3)cc1` registered an Activity of 6.8 µg/mL. Also, the IC50 in test [2] was 135.14 µg/mL.

Regarding `O=C1c2ccccc2-c2c1c(-c1ccc(Br)cc1)nn2-c1nc2ccc(F)cc2s1`, the Activity in test [1] turned out to be 12.7 µg/mL. In addition, the IC50 in test [2] is 196.85 µg/mL.

`O=C1c2ccccc2-c2c1c(-c1ccc(F)cc1)nn2-c1nc2ccc(F)cc2s1` returned an Activity in test [1] of 11.5 µg/mL. Also, the concentration for half-maximal inhibition (IC50) in test [2] was found to be 144.106 µg/mL.

The compound `Cc1ccc(-c2nn(-c3nc4c(C)cccc4s3)c3c2C(=O)c2ccccc2-3)cc1` returned an Activity in test [1] of 7.25 µg/mL. Moreover, in test [2], the IC50 was 165.59 µg/mL.

With `O=C1c2ccccc2-c2c1c(-c1ccccc1)nn2-c1nc2ccc(F)cc2s1`, the Activity in test [1] is 2.63 µg/mL. Further, the IC50 in test [2] turned out to be 98.42 µg/mL.
